Measured values reported in US8604040B2 (priority 2010, dated 2013).
Read-outs that look alike come from different tables or passages of the source.

Columns and labels:
Plasmopara viticola = test: Plasmopara test (grapevine) / protective; assay type: in vivo; details: young grapevine plants, active ingredient concentration 100 ppm, evaluation 6 days after inoculation
Method: Plasmopara Test (Grapevine)/Protective
Solvent: 24.5 parts by weight of acetone
• 24.5 parts by weight of dimethylacetamide Emulsifier: 1 part by weight of alkylaryl polyglycol ether
To prepare an appropriate active ingredient preparation, 1 part by weight of active ingredient is mixed with the stated amounts of solvent and emulsifier, and the concentrate is diluted with water to the desired concentration.
To test for protective efficacy, young plants are sprayed with the active ingredient preparation at the stated application rate. After the spray coating has dried on, the plants are inoculated with an aqueous spore suspension of Plasmopara viticola and then remain in an incubation cabin at approx. 20° C. and 100% relative atmospheric humidity for 1 day. Subsequently, the plants are placed in a greenhouse at approx. 21° C. and approx. 90% air humidity for 4 days. The plants are then moistened and placed into an incubation cabin for 1 day.
Evaluation follows 6 days after the inoculation. 0% means an efficacy which corresponds to that of the control, whereas an efficacy of 100% means that no infection is observed.

Phytophthora infestans = assay type: in vivo; details: protective, young tomato plants, active ingredient concentration 500 ppm, evaluation 7 days after inoculation
[1] = log P by HPLC (EEC Directive 79/831 Annex V.A8); assay type: physicochemical

| Compound | efficacy (Plasmopara viticola) | efficacy (Phytophthora infestans) | chromatographic logP ([1]; HPLC (LC-MS), [c] LC-MS, neutral range, pH 7.8, 0.001 molar aqueous ammonium hydrogencarbonate and acetonitrile, read-out: log P) | chromatographic logP ([1]; HPLC, pH 2.7, given in the preparation examples, read-out: logP (pH2.7)) | chromatographic logP ([1]; [a] HPLC, acidic range, pH 2.3, 0.1% aqueous phosphoric acid and acetonitrile, read-out: log P) | log P ([1]; [a] HPLC, acidic range, pH 2.3, 0.1% aqueous phosphoric acid and acetonitrile) | log P ([1]; [c] LC-MS, neutral range, pH 7.8, 0.001 molar aqueous ammonium hydrogencarbonate and acetonitrile) |
| --- | --- | --- | --- | --- | --- | --- | --- |
| O=C(OC1CCCc2ccccc21)c1cccc(N2CCN(C(=O)Cn3nc(C(F)F)cc3C(F)F)CC2)n1 (stereo not drawn) [Example 117, 1,2,3,4-Tetrahydronaphthalen-1-yl 6-(4-{[3,5-bis(difluoromethyl)-1H-pyrazol-1-yl]-acetyl}piperazin-1-yl)pyridine-2-carboxylate] | 93% | 93% | 4.07 | 4.02 | 4.02 |  |  |
| O=C(OC1CCCCC1)c1cccc(N2CCN(C(=O)Cn3nc(C(F)F)cc3C(F)F)CC2)n1 [Example 140] | 71% | 93% |  |  |  | 3.83 | 3.86 |
